Experimental data taken from US6844353B2, “Fungicidal properties of sampangine and its analogs to agriculturally important fungal plant pathogens” (The United States of America as represented by the …, priority 2003, dated 2005).
Where two headings read alike, the source gives them in different places.

Legend:
Assay in all cases: 96-well microtiter plate assay, fungal growth inhibition
F. oxysporum = type: cell-based, Fusarium oxysporum; settings: Fusarium oxysporum, read-out: Percent inhibition−Percent Stimulation±SEM
Description: (§1) Pathogen production. Isolates of Colletotrichum acutatum Simmonds, Colletotrichum fragariae Brooks, and Colletotrichum gloeosporioides (Penz.) Penz. & Sacc. in Penz. were obtained from B. J. Smith, USDA, ARS, Small Fruit Research Station, Poplarville, Miss. Colletotrichum fragariae (isolate CF63), C. acutatum (isolate CAGoff), and C. gloeosporioides (isolate CG162) were used for all pathogen and bioautography studies. Isolate CF63 is one of the most virulent isolates at infecting strawberry plants and inducing both crown and fruit rot (Smith and Black, 1990). CF63, CAGoff, and CG162 were used as standard test isolates because of our extensive knowledge of these isolates and their known fungicide sensitivity profiles in both bioautography and microtiter formats. The three Colletotrichum species were isolated from strawberry (Fragaria x ananassa Duchesne). Botrytis cinerea Pers.: Fr, was isolated from commercial grape (Vitis vinifera L.) and Fusarium oxysporum Schlechtend: Fr from orchid (Cynoches sp.). Phomopsis viticola (Sacc.) and P. obscurans (Ellis & Everh.) Sutton were from Mike A. Ellis, Ohio State University, Wooster, Ohio. Fungi were grown on potato-dextrose agar (PDA, Difco, Detroit, Mich.) in 9 cm petri dishes and incubated in a growth chamber at 24±2° C. and under cool-white fluorescent lights ([…]·m^−2·sec^−1 light) with 12 hour photoperiod.
(§2) Inoculum preparation. Conidia were harvested from 7-10 day-old cultures by flooding plates with 5 mL of sterile distilled water and dislodging conidia by softly brushing the colonies with an L-shaped glass rod. Conidial suspensions were filtered through sterile miracloth (Calbiochem-Novabiochem Corp., La Jolla, Calif.) to remove mycelia. Conidia concentrations were determined photometrically, from a standard curve based on the percent of transmittance (% T) at 625 nm and suspensions were then adjusted with sterile distilled water to a concentration of 1.0×10^6 conidia/mL.
(§3) Microtiter assay. A standardized 96-well microtiter plate assay developed for discovery of natural product fungicidal agents was used to evaluate naturally occurring antifungal agents from Macaranga monanara. A 96-well microtiter assay was used to determine sensitivity of B. cinerea, C. acutatum, C. fragariae, C. gloeosporioides, F. oxysporum, Phomopsis viticola, and P. obscurans to the various antifungal agents in comparison with known fungicidal standards. Vinclozolin, captan, and thiabendazole, which represent three different modes of action, were used as standards in this experiment. Each fungus was challenged in a dose-response format using test compounds where the final treatment concentrations were 0.3, 3.0 and 30.0 μM. Microtiter plates (Nunc MicroWell, untreated; Roskilde, Denmark) were covered with a plastic lid and incubated in a growth chamber as described previously for fungal growth. Growth was then evaluated by measuring absorbance of each well at 620 nm using a microplate photometer (Packard Spectra Count, Packard Instrument Co., Downers Grove, Ill.). Microtiter plates (Nunc MicroWell, untreated; Roskilde, Denmark) were covered with a plastic lid and incubated in a growth chamber at 24±1° C. and 12 hour photoperiod under 60±5 μmol light. Growth was then evaluated by measuring absorbance of each well at 620 nm using a microplate photometer (Packard Spectra Count, Packard Instrument Co., Downers Grove, Ill.).
(§4) Microbioassy Experimental Design. Chemical sensitivity each of B. cinerea, C. acutatum, C. fragariae, C. gloeosporiodes, F. oxysporum, Phomopsis viticola, and P. obscurans was evaluated using 96-well plate microbioassay format. Each chemical was evaluated in duplicate at each dose (0.3, 3.0 and 30.0 μM). […]

B. cinerea = type: cell-based, Botrytis cinerea; settings: Botrytis cinerea, read-out: Percent inhibition−Percent Stimulation±SEM
Description: as §1, §2, §3, §4

C. gloeosporioides = type: cell-based, Colletotrichum gloeosporioides; settings: Colletotrichum gloeosporioides, read-out: Percent inhibition−Percent Stimulation±SEM
Description: as §1, §2, §3, §4

C. fragariae = type: cell-based, Colletotrichum fragariae; settings: Colletotrichum fragariae, read-out: Percent inhibition−Percent Stimulation±SEM
Description: as §1, §2, §3, §4

C. acutatum = type: cell-based, Colletotrichum acutatum; settings: Colletotrichum acutatum, read-out: Percent inhibition−Percent Stimulation±SEM
Description: as §1, §2, §3, §4

| Structure (SMILES) | inhibition at 0.3 µM (F. oxysporum; 48 h) [%] | inhibition at 3 µM (F. oxysporum; 48 h) [%] | inhibition at 30 µM (F. oxysporum; 48 h) [%] | inhibition at 0.3 µM (F. oxysporum; 72 h) [%] | inhibition at 3 µM (F. oxysporum; 72 h) [%] | inhibition at 30 µM (F. oxysporum; 72 h) [%] | inhibition at 0.3 µM (B. cinerea; 48 h) [%] | inhibition at 3 µM (B. cinerea; 48 h) [%] | inhibition at 30 µM (B. cinerea; 48 h) [%] | inhibition at 0.3 µM (B. cinerea; 72 h) [%] | inhibition at 3 µM (B. cinerea; 72 h) [%] | inhibition at 30 µM (B. cinerea; 72 h) [%] | inhibition at 0.3 µM (C. gloeosporioides; 48 h) [%] | inhibition at 3 µM (C. gloeosporioides; 48 h) [%] | inhibition at 30 µM (C. gloeosporioides; 48 h) [%] | inhibition at 0.3 µM (C. gloeosporioides; 72 h) [%] | inhibition at 3 µM (C. gloeosporioides; 72 h) [%] | inhibition at 30 µM (C. gloeosporioides; 72 h) [%] | inhibition at 0.3 µM (C. fragariae; 48 h) [%] | inhibition at 3 µM (C. fragariae; 48 h) [%] | other results |
| --- | --- | --- | --- | --- | --- | --- | --- | --- | --- | --- | --- | --- | --- | --- | --- | --- | --- | --- | --- | --- | --- |
| O=C1C2CC=CCC2C(=O)N1SC(Cl)(Cl)Cl (stereo not drawn) [Captan] | 2.8 ± 4.7 | 77.2 ± 7.2 | 100 ± 0.4 | -4.7 ± 2.1 | 24.1 ± 6.5 | 99.8 ± 0.2 | -55.9 ± 24.7 | 38.4 ± 23.5 | 58 ± 23.2 | 40.7 ± 16.3 | 54.6 ± 22.9 | 54 ± 17.9 | -4.4 ± 4.4 | 96.3 ± 2.1 | 99.7 ± 0.6 | -15.3 ± 2.1 | 97.9 ± 0.7 | 100 ± 0.3 | -20.5 ± 9.5 | 98.1 ± 0.6 | inhibition at 30 µM (C. fragariae; 48 h): 98.8 ± 0.8%; inhibition at 0.3 µM (C. fragariae; 72 h): -14.9 ± 2.2%; inhibition at 3 µM (C. fragariae; 72 h): 97.8 ± 1.6%; inhibition at 30 µM (C. fragariae; 72 h): 99.5 ± 0.3%; inhibition at 0.3 µM (C. acutatum; 48 h): -2.7 ± 2.4%; inhibition at 3 µM (C. acutatum; 48 h): 98.8 ± 0.4%; inhibition at 30 µM (C. acutatum; 48 h): 99.5 ± 0.3%; inhibition at 0.3 µM (C. acutatum; 72 h): -9.5 ± 1.5%; inhibition at 3 µM (C. acutatum; 72 h): 94.8 ± 0.2%; inhibition at 30 µM (C. acutatum; 72 h): 99.6 ± 0.2% |
| Cc1cc(C2CC2)nc(Nc2ccccc2)n1 [Cyprodinil] | -5.4 ± 4.8 | 16.9 ± 5.5 | 69.1 ± 4.6 | -5.1 ± 2.8 | 6.2 ± 2.5 | 31.3 ± 4.9 | 75.3 ± 21 | 29.4 ± 31.3 | 2.5 ± 31.6 | 61.3 ± 24.4 | 51.3 ± 30 | 27.3 ± 28.2 | 84.3 ± 2.3 | 91.3 ± 1.3 | 91.1 ± 7 | 55.7 ± 4.6 | 83.7 ± 1.8 | 93 ± 0.4 | 98 ± 1.6 | 91.3 ± 1.3 | inhibition at 30 µM (C. fragariae; 48 h): 91.1 ± 7%; inhibition at 0.3 µM (C. fragariae; 72 h): 82.6 ± 6.2%; inhibition at 3 µM (C. fragariae; 72 h): 83.7 ± 1.8%; inhibition at 30 µM (C. fragariae; 72 h): 93 ± 0.4%; inhibition at 0.3 µM (C. acutatum; 48 h): 99.8 ± 0.2%; inhibition at 3 µM (C. acutatum; 48 h): 98.6 ± 0.6%; inhibition at 30 µM (C. acutatum; 48 h): 98.7 ± 0.5%; inhibition at 0.3 µM (C. acutatum; 72 h): 85.1 ± 4.3%; inhibition at 3 µM (C. acutatum; 72 h): 99.3 ± 2.2%; inhibition at 30 µM (C. acutatum; 72 h): 97.9 ± 0.3% |
